Data taken from patent EP2408450B1, “ALPHA-(N-SULFONAMIDO)ACETAMIDE COMPOUND AS AN INHIBITOR OF BETA AMYLOID PEPTIDE PRODUCTION” (Bristol-Myers Squibb Company, priority 2009, dated 2010).
Like-named read-outs stand apart in the source and are kept apart here.

Key:
[1] = Metabolic stability in liver microsomes (mouse); assay type: in vitro ADME
Experimental: (§1) Mouse, rat, dog, human, and cynomolgus monkey liver microsomes were obtained from BD Gentest (Woburn, MA). The lot numbers were 13 (mouse), 8 (rat), 8 (dog), 19 and 26 (human), and 3 (cynomolgus monkey). […] The reaction, conducted in triplicate, was initiated by the addition of NADPH followed by incubation at 37°C for 50 minutes. Aliquots of samples (0.25 mL) were taken at 0, 5, 10, 20, 30, 40 and 50 minutes and the reaction was quenched by the addition of 3 volumes of acetonitrile. […] The reaction, conducted in triplicate, was initiated by the addition of NADPH followed by incubation at 37 °C for 50 minutes. Aliquots of samples (0.25 mL) were taken at 0, 5, 10, 20, 30, 40 and 50 minutes and the reaction was quenched by the addition of 3 volumes of acetonitrile. […] The reaction, conducted in duplicate, was initiated by the addition of NADPH followed by incubation at 37°C for 40 minutes. Aliquots of samples (0.25 mL) were taken at 0, 5, 10, 15, 20, 30 and 40 minutes and the reaction was quenched by the addition of 3 volumes of acetonitrile. For all studies, samples were analyzed immediately by an LC/MS method.

[2] = Metabolic stability in liver microsomes (rat); assay type: in vitro ADME
Experimental: as §1

[3] = Compound plasma levels / AUC in rat studies; assay type: in vivo; settings: for concentration at 5 h: female, Sprague-Dawley, rat, plasma, oral
Experimental: All procedures were done in concordance with ACUC guidelines. […] Plasma was obtained after centrifugation. […] CSF samples were centrifuged to remove cells or debris prior to dilution at 1:2 in 4% BSA and frozen for subsequent analysis.
Animals were euthanized 12 or 24 hours after the third dose or 5 hours after the fourth dose. […] Table 2: Summary of Results from 4-day Rat Studies

brain Aβ40 = assay: Rat brain Aβ40 assay (252-TSD ELISA); assay type: in vivo; settings: for Day 7 5hr Brain Aβ40 (%Veh): 7 days; for Terminal Brain Aβ40 (%Veh) 5hr: 5 hours after the fourth dose; for Terminal Brain Aβ40 (%Veh) 12hr: 12 hours after the third dose; for Terminal Brain Aβ40 (%Veh) 24hr: 24 hours after the third dose; for brain Aβ40, % of baseline Aβ40 values: 2 to 24 hours post dosing
Experimental: All procedures were done in concordance with ACUC guidelines. […] Plasma was obtained after centrifugation. […] CSF samples were centrifuged to remove cells or debris prior to dilution at 1:2 in 4% BSA and frozen for subsequent analysis. […] Rat brain (half a hemisphere) was homogenized using a polytron at 4 mL/g in PBS, pH 7.8, 2% CHAPS, complete protease inhibitors (Roche). […] White Microlite II ELISA plates (Thermo Electron) were incubated with 50 µg/mL TSD9S3.2 antibody in PBS for 1 hour at 37°C. Plates were blocked with 200 µL 5% bovine serum albumin (BSA; weight/volume prepared in PBS) for 2 hours at room temperature on a plate shaker and then washed 5 times with 500 µL/well of PBS, 0.05% Tween-20. Clarified brain homogenates were loaded in 6 replicates of 50 µL per well and incubated for 1 hour at room temperature. […] Samples were normalized to a brain homogenate reference placed on each plate.

[4] = Metabolic stability in liver microsomes (dog); assay type: in vitro ADME
Experimental: as §1

[5] = Metabolic stability in liver microsomes (cynomolgus monkey); assay type: in vitro ADME
Experimental: as §1

Aβ42 = assay: Inhibition of Aβ42 formation in cultured H4 APP751 SWE cells; assay type: cell-based; settings: H4-8Sw cells, mean ± SD, n = 45
Experimental: Cells were maintained in log phase through twice weekly passage at a 1:20 dilution. […] Following incubation for 19 hours in 5% CO2 at 37°C, plates were briefly centrifuged (1000 rpm, 5 min). […] Antibody cocktails were freshly prepared by dilution into 40 mM Tris-HCl (pH 7.4) with 0.2% BSA and added to assay plates. […] Assay plates containing antibodies were sealed with aluminum foil and incubated overnight at 4°C. Signal was determined using a Viewlux counter (Perkin Elmer) and IC50 values determined using curve fitting in CurveMaster (Excel Fit based).

mouse Notch1-ΔE = assay: Inhibition of Notch1-ΔE signaling in Hela cells (CBF1-luciferase reporter); settings: read-out: IC50 for inhibition of Notch1-ΔE signaling
Experimental: The mouse Notch1-ΔE construct contains the mouse Notch1 signal sequence and the M1727V mutation within the transmembrane domain to suppress internal translation initiation.
Hela cells were maintained in DMEM (GibcoBRL) containing 10% FBS (GibcoBRL), Penicillin/Streptomycin (GibcoBRL) and 2 mM L-glutamine (GibcoBRL). Cells were transiently transfected using TransIT-HelaMONSTER (Mirus) according to the manufacturer's directions. […] The CBF1-luciferase reporter construct consists of 4X copies of the CBF1 binding element upstream of the SV40 promoter (pGL3-Promoter, Promega). […] DNA stocks were diluted in TE buffer (10 mM Tris, 1 mM EDTA, pH 8.0) for transfection. […] Test compounds were initially diluted in a 96 well polypropylene plate in 100% DMSO. […] Diluted compound solutions (10 µL) were added to the cell plate yielding a final 0.1 % DMSO concentration. Cell plates containing compound were incubated overnight at 37°C. Following this overnight incubation, media was gently removed and 25 µL of phosphate buffered saline (with calcium and magnesium) was added to each well. Luc-Screen (Applied Biosystems) reagents A and B were mixed in equal proportions and 50 µL of the mixture was added to each well. The plate was incubated at room temperature for 10 minutes before black backing was attached to the bottom of the plate and the signal was read on a TopCount (Packard). […]

[6] = rat, Study No. 2, 100 mg/kg/day

NC(=O)[C@@H](CCC(F)(F)F)N(Cc1ccc(-c2ncon2)cc1F)S(=O)(=O)c1ccc(Cl)cc1 [(2R)-2-[[(4-chlorophenyl)sulfonyl][[2-fluoro-4-(1,2,4-oxadiazol-3-yl)phenyl]methyl]amino]-5,5,5-trifluoropentanamide]
rate of in vitro metabolism ([1]; mouse microsomes, NADPH-fortified, 1 µM): 690 pmol/min/mg protein | predicted in vivo (serum) clearance ([1]; mouse, scaled from liver microsome rate): approximately 87 mL/min/kg | rate of in vitro metabolism ([2]; rat microsomes, NADPH-fortified, 1 µM): 630 pmol/min/mg protein | predicted in vivo (serum) clearance ([2]; rat, scaled from liver microsome rate): ~52 mL/min/kg | concentration at 5 h ([3]; 30 mg/kg/day, Rat Study No. 3, 30 mg/kg/day, group terminated Day 4, read-out: Plasma Conc. 5hr post dose Day 1): 5.9 µM | concentration at 5 h ([3]; 30 mg/kg/day, Rat Study No. 3, 30 mg/kg/day, group terminated Day 4, read-out: Plasma Conc. 5hr post dose Day 4): 5.6 µM | concentration at 5 h ([3]; 30 mg/kg/day, Rat Study No. 3, 30 mg/kg/day, group terminated Day 7, read-out: Plasma Conc. 5hr post dose Day 1): 7.2 µM | concentration at 5 h ([3]; 30 mg/kg/day, Rat Study No. 3, 30 mg/kg/day, group terminated Day 7, read-out: Plasma Conc. 5hr post dose Day 7): 6.2 µM | concentration at 5 h ([3]; 300 mg/kg/day, Rat Study No. 3, 300 mg/kg/day, group terminated Day 4, read-out: Plasma Conc. 5hr post dose Day 1): 12 µM | concentration at 5 h ([3]; 300 mg/kg/day, Rat Study No. 3, 300 mg/kg/day, group terminated Day 4, read-out: Plasma Conc. 5hr post dose Day 4): 10 µM | concentration at 5 h ([3]; 300 mg/kg/day, Rat Study No. 3, 300 mg/kg/day, group terminated Day 7, read-out: Plasma Conc. 5hr post dose Day 1): 14 µM | concentration at 5 h ([3]; 300 mg/kg/day, Rat Study No. 3, 300 mg/kg/day, group terminated Day 7, read-out: Plasma Conc. 5hr post dose Day 7): 11 µM | compound plasma levels 5 hours after the first and fourth dose ([3]; rats, 30 or 300 mg/kg/day): similar | Day 7 5hr Brain Aβ40 (%Veh) (brain Aβ40; Rat Study No. 3, 30 mg/kg/day): 13%Veh | Day 7 5hr Brain Aβ40 (%Veh) (brain Aβ40; Rat Study No. 3, 300 mg/kg/day): 13%Veh | ED50 (brain Aβ40; acute rat studies, read-out: ED50 for reduction of brain Aβ40): 1 to 10 mg/kg | Brain % Aβ AUC Reduction (brain Aβ40; rat, Study No. 2, 3 mg/kg/day): 57% | Terminal Brain Aβ40 (%Veh) 5hr (brain Aβ40; rat, Study No. 2, 3 mg/kg/day): 16%Veh | Terminal Brain Aβ40 (%Veh) 12hr (brain Aβ40; rat, Study No. 2, 3 mg/kg/day): 34%Veh | Terminal Brain Aβ40 (%Veh) 24hr (brain Aβ40; rat, Study No. 2, 3 mg/kg/day): 94%Veh | Brain % Aβ AUC Reduction (brain Aβ40; rat, Study No. 2, 10 mg/kg/day): 91% | Terminal Brain Aβ40 (%Veh) 5hr (brain Aβ40; rat, Study No. 2, 10 mg/kg/day): 6%Veh | Terminal Brain Aβ40 (%Veh) 12hr (brain Aβ40; rat, Study No. 2, 10 mg/kg/day): 4%Veh | Terminal Brain Aβ40 (%Veh) 24hr (brain Aβ40; rat, Study No. 2, 10 mg/kg/day): 23%Veh | Brain % Aβ AUC Reduction (brain Aβ40; rat, Study No. 2, 30 mg/kg/day): 93% | Terminal Brain Aβ40 (%Veh) 5hr (brain Aβ40; rat, Study No. 2, 30 mg/kg/day): 6%Veh | Terminal Brain Aβ40 (%Veh) 12hr (brain Aβ40; rat, Study No. 2, 30 mg/kg/day): 4%Veh | Terminal Brain Aβ40 (%Veh) 24hr (brain Aβ40; rat, Study No. 2, 30 mg/kg/day): 15%Veh | Brain % Aβ AUC Reduction (brain Aβ40; [6]): 96% | Terminal Brain Aβ40 (%Veh) 5hr (brain Aβ40; [6]): 3%Veh | Terminal Brain Aβ40 (%Veh) 12hr (brain Aβ40; [6]): 3%Veh | Terminal Brain Aβ40 (%Veh) 24hr (brain Aβ40; [6]): 7%Veh | Brain % Aβ AUC Reduction (brain Aβ40; rat, Study No.1, 3 mg/kg/day): 49% | Terminal Brain Aβ40 (%Veh) 5hr (brain Aβ40; rat, Study No.1, 3 mg/kg/day): 39%Veh | Terminal Brain Aβ40 (%Veh) 12hr (brain Aβ40; rat, Study No.1, 3 mg/kg/day): 35%Veh | Terminal Brain Aβ40 (%Veh) 24hr (brain Aβ40; rat, Study No.1, 3 mg/kg/day): 92%Veh | Brain % Aβ AUC Reduction (brain Aβ40; rat, Study No.1, 10 mg/kg/day): 85% | Terminal Brain Aβ40 (%Veh) 5hr (brain Aβ40; rat, Study No.1, 10 mg/kg/day): 12%Veh | Terminal Brain Aβ40 (%Veh) 12hr (brain Aβ40; rat, Study No.1, 10 mg/kg/day): 9%Veh | Terminal Brain Aβ40 (%Veh) 24hr (brain Aβ40; rat, Study No.1, 10 mg/kg/day): 28%Veh | Brain % Aβ AUC Reduction (brain Aβ40; rat, Study No.1, 30 mg/kg/day): 90% | Terminal Brain Aβ40 (%Veh) 5hr (brain Aβ40; rat, Study No.1, 30 mg/kg/day): 8%Veh | Terminal Brain Aβ40 (%Veh) 12hr (brain Aβ40; rat, Study No.1, 30 mg/kg/day): 9%Veh | Terminal Brain Aβ40 (%Veh) 24hr (brain Aβ40; rat, Study No.1, 30 mg/kg/day): 13%Veh | change in brain Aβ40 (brain Aβ40; rat, single dose 1 mg/kg): did not cause a statistically significant change | brain Aβ40, % of baseline Aβ40 values (brain Aβ40; rat, single dose 10 mg/kg): less than 25% | brain Aβ40, % of vehicle control (brain Aβ40; rat, single dose 30 mg/kg): 16% | brain Aβ40, % of baseline Aβ40 values (brain Aβ40; rat, single dose 100 mg/kg): less than 25% | Brain Aβ40 levels at termination, % of the vehicle control (brain Aβ40; rats, 30 or 300 mg/kg/day, 5 hours post dose): 13% | Brain Aβ40 AUC reduction (brain Aβ40; subchronic rat studies, doses of 10 mg/kg/day or higher): greater than 85% | rate of in vitro metabolism ([4]; dog microsomes, NADPH-fortified, 1 µM): 40 pmol/min/mg protein | predicted in vivo (serum) clearance ([4]; dog, scaled from liver microsome rate): ~14 mL/min/kg | rate of in vitro metabolism ([5]; cynomolgus monkey microsomes, NADPH-fortified, 1 µM): 495 pmol/min/mg protein | predicted in vivo (serum) clearance ([5]; cynomolgus monkey, scaled from liver microsome rate): ~39 mL/min/kg | IC50 (Aβ42): 0.27 ± 0.12 nM | IC50 (mouse Notch1-ΔE): 58 ± 23 nM
